According to ChEMBL document CHEMBL1201862, “PubChem BioAssay data set” (2004):
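Assay format: 96-well plates, 48-hour exposure. At the GI50, growth is halved.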 Active and inactive are the calls of the source. No stated cut-off is given here; in the data, active = GI50 up to about 1.1 µM and inactive = higher.

How the values were obtained:
Assay in all cases: growth of human tumour cells (NCI), 48 h
NCI/ADR-RES = test system: NCI/ADR-RES
UACC-257 = test system: UACC-257
CAKI-1 = test system: CAKI-1
UACC-62 = test system: UACC-62
MDA-MB-435 = test system: MDA-MB-435
NCI-H23 = test system: NCI-H23
NCI-H522 = test system: NCI-H522
HCT-116 = test system: HCT-116
TK-10 = test system: TK-10
OVCAR-5 = test system: OVCAR-5
SN12C = test system: SN12C
MCF7 = test system: MCF7
ACHN = test system: ACHN
Hs-578T = test system: Hs-578T
OVCAR-8 = test system: OVCAR-8
HOP-92 = test system: HOP-92
A549 = test system: A549
SK-MEL-28 = test system: SK-MEL-28
SW-620 = test system: SW-620
SNB-75 = test system: SNB-75

Measured: GI50

O=C1C(C(O)(C(F)(F)Cl)C(F)(F)Cl)CCC1C(O)(C(F)(F)Cl)C(F)(F)Cl (stereo not given)
inactive: NCI/ADR-RES > 10 µM | UACC-257 2.79 µM | CAKI-1 3.4 µM | UACC-62 3.25 µM | MDA-MB-435 > 10 µM | NCI-H23 2.8 µM | NCI-H522 4.45 µM | HCT-116 2.5 µM | TK-10 5.52 µM | OVCAR-5 5.43 µM | SN12C 6.87 µM | MCF7 3.48 µM | ACHN 3.81 µM | Hs-578T 1.9 µM | OVCAR-8 3.94 µM | HOP-92 2.09 µM | A549 9.57 µM | SK-MEL-28 3.42 µM | SW-620 4.15 µM | SNB-75 3.7 µM

COc1ccc(Oc2cnn(C(Br)(Br)C(C)=O)c(=O)c2Br)cc1
inactive: NCI/ADR-RES 18.5 µM | UACC-257 15.1 µM | CAKI-1 10.8 µM | UACC-62 15.7 µM | MDA-MB-435 10 µM | NCI-H23 17.9 µM | NCI-H522 4.56 µM | HCT-116 7 µM | TK-10 13.5 µM | OVCAR-5 17.7 µM | SN12C 15 µM | MCF7 15.4 µM | ACHN 13.6 µM | Hs-578T 26.1 µM | OVCAR-8 13.3 µM | HOP-92 14.7 µM | A549 24 µM | SK-MEL-28 16 µM | SW-620 4.56 µM | SNB-75 15 µM
